Experimental findings from patent publication US20250283052A1, “THERAPEUTIC NK CELL POPULATIONS” (Gamida Cell Ltd., priority 2021, published 2025) are described below.

Test [1] concerns CD62L. As to the kind of experiment: CD62L staining 2 hours post-thaw (FACS). The settings on record: culturing in 7 mM NAM; 2 hours post-thaw (FIG. 2). Format: cell-based. The procedure: The cells were thawed, and 2 hours post-thaw were sampled for staining against CD62L and analyzed by FACS. Assays for adhesion and migration molecules such as CD62L, CXCR-4, CD49e and the like, important for homing/engraftment and retention of cells in transplantation, are well known in the art. CD62L expression in a cell can be assayed, for example, by flow cytometry, immunodetection, quantitative cDNA amplification, hybridization and the like. In one embodiment, CD62L expression is detected in different populations of NK cells by exposure of the cells to a fluorescent-tagged specific anti-human CD62L monoclonal antibody [e.g., CD62L PE, Cat. No. 304806 from BioLegend (San Diego, CA, USA)], and sorting of the cells by fluorescent activated cell sorting (FACS). After 2 weeks in culture according to the methods of the invention, a modified procedure using inactivated autologous CD3+ cells as feeder, supplemented with OKT3 and NAM, led to an improved fold expansion, which increased the total number of viable cells obtained at harvest. The functionality of the cells in killing and ADCC was assessed by combination of NK cells with target cells BL2 (Burkitt lymphoma cell line)—at different ratios. […]

For test [2], the system named is CD200R. The test is described as follows: CD200R immunophenotyping of expanded NK cells (FACS). The following applies: 2 weeks culture without NAM or with 2.5, 5 or 7 mM NAM (FIG. 3). Format: cell-based. The method, then:
Cells were cultured for 2 weeks without NAM and with 2.5 mM, 5 mM NAM or 7 mM NAM. Samples for staining against CD200R were analyzed by FACS.
The immune checkpoint receptors, CD200R and Programmed Death receptor-1 (PD-1), are exploited by tumor cells which overexpress their ligands to suppress lymphocytes anti-tumor activity. The effect of expansion with nicotinamide (NAM) on expression of immune checkpoint receptors in NK cells was assessed.

In the case of `NC(=O)c1cccnc1` [NAM, nicotinamide], the “expression of CD62L” value in test [1] is given as “increased expression of CD62L”. Also, the “expression of CD200R on expanded NK cells” value in test [2] is reported as “down regulated”.
